Measured values from patent publication US20220325235A1, “CELL CULTURE METHODS” (The University of Massachusetts, priority 2019, published 2022).
“Also recorded” adds a separate entry of the source.

Columns and labels:
CHO-K1 cell line = assay: Fed-batch spiking test: IgG glycan profile by HPLC with Glycan Column; assay type: cell-based, Chinese hamster
Protocol: Industrial standard Fed-batch process: CHO-K1 cell line is cultured in corresponding media. Feed for 14 days, with 6 mM glutamine supplement on the inoculation day. The working volume is 30 mL in 125 mL shake flasks, and the inoculation cell density is 0.5 million cells/mL. The parameters for the shaking incubator are: 125 RPM, and 5% CO2. The feeding strategy is 10% corresponding feed everyday starting from day 3 to day 13.
In the standard industrial fed-batch process, cells were exposed to the inhibitors for a long period of time. This experiment mimics the therapeutic antibody production process, and spikes the inhibitors at their end-of-culture cellular concentration. ICA was confirmed as a known inhibitor and was used as a positive inhibitor control. Mixture condition excluded ICA and included AA, HICA, CMP, MSA, TRI, NAP. The process lasted for 14 days, and starting from day 6, the cell density under the inhibitor conditions were lower than the negative control batch.
IgG titer was measured by HPLC with a Protein A column. Product quality was quantified by the IgG glycan profile, which was measured by HPLC with a Glycan Column.

CHO cells = assay: Batch culture spiking of metabolites at end-of-culture concentration: cell density; assay type: cell-based, Chinese hamster; details: 6 days, spiked at end-of-culture concentration
Protocol: CHO K-1 industrial standard batch process: NIH CHO-K1 cell line is cultured for 6 days, with 6 mM glutamine supplement on the inoculation day. The working volume is 30 mL in 125 mL shake flasks, and the inoculation cell density is 0.5 million cells/mL. The parameters for the shaking incubator are: 125 RPM, and 5% CO2.
Cells were exposed to the identified inhibitory metabolites of Table 1 at their end-of-culture concentration for 6 days in batch culture. […] All of the inhibitory metabolites decreased the antibody productivity (FIG. 4).

| Compound | Impact on G1F formation compared to control group (CHO-K1 cell line) | Impact on G2F formation compared to control group (CHO-K1 cell line; Day 14) | Cell density compared with the control group (CHO cells) |
| --- | --- | --- | --- |
| O=C(O)C=C(CC(=O)O)C(=O)O [AA, aconitic acid] | higher impact | totally inhibits; also recorded: G2F was not formed | lower cell density |
| Nc1ccn([C@@H]2O[C@H](COP(=O)(O)O)[C@@H](O)[C@H]2O)c(=O)n1 [CMP, cytidine monophosphate] | higher impact |  | lower cell density |
| CC(C)CC(O)C(=O)O (stereo not drawn) [HICA, leucinic acid] | higher impact |  |  |
| O=C(O)c1c[nH]c2ccccc12 [ICA, indole-3-carboxylic acid, reference compound] | higher impact |  | lower cell density |
| CC(CC(=O)O)C(=O)O (stereo not drawn) [MSA, methylsuccinic acid] | higher impact |  |  |
